Measured values published in PMC7460216 (Marine Drugs, 2020).
Read-outs that look alike come from different tables or passages of the source.

How the values were obtained:
Leishmania donovani = assay: Antiparasitic assay, Leishmania donovani; format: cell-based; details: for IC50: mean of duplicate assays, read-out: L. Don. IC50
Excerpt: (§1) The set of compounds were screened against a panel of four parasitic protozoa: Trypanosoma brucei rhodesiense, Trypanosoma cruzi, Leishmania donovani and Plasmodium falciparum K1 dual drug-resistant strain.
(§2) Detailed protocols for these assays have been described elsewhere.

[1] = system: Trypanosoma brucei rhodesiense; assay: Antiparasitic assay, Trypanosoma brucei rhodesiense; format: cell-based; details: for IC50: read-out: T. B. Rhod. IC50
Excerpt: as §1, §2

[2] = system: Plasmodium falciparum K1 dual drug-resistant strain; assay: Antiparasitic assay, Plasmodium falciparum K1; format: cell-based; details: for SI Pf, antiplasmodial selectivity index = L6 IC50/P f. IC50: L6 versus P. falciparum K1
Excerpt: as §1, §2

Trypanosoma cruzi = assay: Antiparasitic assay, Trypanosoma cruzi; format: cell-based; details: for IC50: mean of duplicate assays, read-out: T. Cruzi IC50
Excerpt: as §1, §2

L6 cytotoxicity assay = format: cell-based, rat; details: rat, mean of duplicate assays
[3] = cited from earlier work
[4] = system: panel of human tumour cell lines (NCI 60 cell-line panel); assay: cells; details: for tumour cell mean growth: preliminary single dose (10 μM) testing
Excerpt: Protocols of testing at the DTP, NCI have been described elsewhere.

Vero cell line = system: Vero cell line; design: method as in PMID 20337497; details: cited from earlier work
[5] = system: L6 rat skeletal myoblast cell line; assay: L6 cytotoxicity assay; format: cell-based
[6] = system: Plasmodium falciparum (Pf) D6 clone; design: method as in PMID 20337497; details: cited from earlier work
Pf W2 clone = details: cited from earlier work
[7] = system: non-malignant human keratinocyte cell line; design: method as in PMID 32054048; details: read-out: human keratinocyte cell line IC50 (cytotoxicity); cited from earlier work
[8] = system: human colon tumour cell line HCT-116; details: read-out: HCT-116 IC50 (cytotoxicity); cited from earlier work
[9] = Trypanosoma brucei, RHODESIENSE, mean of duplicate assays
[10] = Plasmodium falciparum, K1, read-out: P. Falc. K1 IC50
[11] = Leishmania donovani, read-out: L. Don. % inhibition
[12] = Plasmodium falciparum, K1, read-out: P. Falc. K1 % inhibition
[13] = Trypanosoma cruzi, read-out: T. Cruzi % inhibition
[14] = Trypanosoma brucei, RHODESIENSE

**Q.** Which IC50 (Leishmania donovani; Leishmania donovani) does the source give for `Cn1cnc(SC2[C@H]3C(=O)C=C4S[C@H]5C[C@]42C2=C(N5)C(=O)c4[nH]cc5c4C2=[N+]3CC5)c1C[C@H](N)C(=O)O` (single isomer, unassigned; (+)) [Compound 12, (+)-discorhabdin H2] here?
**A.** 94000 nM

**Q.** What about the IC50 [1, 9] of the same molecule?
**A.** 2300 nM

**Q.** What about the “SI Pf, antiplasmodial selectivity index = L6 IC50/P f. IC50” value [2] of the same molecule?
**A.** 1.4

**Q.** What about the IC50 [2, 10] of the same molecule?
**A.** 12000 nM

**Q.** What about the IC50 (Trypanosoma cruzi; Trypanosoma cruzi) of the same molecule?
**A.** 63000 nM

**Q.** And the IC50 (L6 cytotoxicity assay)?
**A.** 17000 nM

**Q.** For `O=C1C=C2S[C@H]3C[C@]2(C=C1Br)C1=C(N3)C(=O)c2[nH]cc3c2C1=NCC3` [Compound 1, (+)-discorhabdin B], which inhibition at 1.5 µM (Leishmania donovani; [11]) is on record?
**A.** 57%

**Q.** And the inhibition at 1.5 µM ([1]; Trypanosoma brucei, RHODESIENSE, read-out: T. B. Rhod. % inhibition)?
**A.** 99%

**Q.** And the “cytotoxicity (in words, Figure 9)” value [3]?
**A.** Cytotoxic

**Q.** And the inhibition at 1.5 µM [2, 12]?
**A.** 100%

**Q.** And the inhibition at 1.5 µM (Trypanosoma cruzi; [13])?
**A.** 100%

**Q.** Which results are given for `CCCCCSC1=CC(=O)C(Br)=CC12CCNC1=C2C2=NCCc3c[nH]c(c32)C1=O` (stereo not shown) [Compound 4, Thiopentanyl-Discorhabdin C Adduct]?
**A.** GI50 ([4]; Homo sapiens, read-out: GI50 (50% growth inhibition)): 1400 nM; CC50 ([4]; Homo sapiens, read-out: LC50 (50% cell kill)): 10500 nM; TGI (total growth inhibition) ([4]; averaged calculated mean over panel, two experiments at the NCI): 3900 nM

**Q.** With `CCCCCNC1[C@@H]2[N+]3=C4C5=C(NCC[C@@]51[C@@H](O)[C@@H](Br)C2(O)O)C(=O)c1[nH]cc(c14)CC3` (stereo partly shown) [Compound 6, Aminopentane Discorhabdin C Dihydrate Adduct] as the molecule, how does the “SI Pf, antiplasmodial selectivity index = L6 IC50/P f. IC50” value [2] read?
**A.** 3.2

**Q.** What about the IC50 [2, 10] of the same molecule?
**A.** 250 nM

**Q.** What about the IC50 (L6 cytotoxicity assay) of the same molecule?
**A.** 810 nM

**Q.** And the “tumour cell line cytotoxicity / antitumour activity (in words)” value ([4]; NCI human tumour cell line panel)?
**A.** inactive

**Q.** What about the “tumour cell mean growth” value [4] of the same molecule?
**A.** 100.67%

**Q.** With `O=C1C2=C3C4=[N+](CCc5c[nH]c1c54)C1(O)CCC3(CCN2)CC1` [Compound 7, Discorhabdin C Hydrogenation Product] as the molecule, how does the “SI Pf, antiplasmodial selectivity index = L6 IC50/P f. IC50” value [2] read?
**A.** 19

**Q.** And the IC50 ([2]; Plasmodium falciparum, K1, mean of duplicate assays, read-out: P. Falc. K1 IC50)?
**A.** 90 nM

**Q.** And the IC50 (L6 cytotoxicity assay; L6 rat skeletal myoblast cells)?
**A.** 1700 nM

**Q.** What about the “tumour cell mean growth” value [4] of the same molecule?
**A.** 99.57%

**Q.** With `O=C1C(Br)=CC2(C=C1Br)CCNC1=C2C2=NCCc3cn(C4C5[N+]6=C7C8=C(NCCC84C(O)C(Br)C5(O)O)C(=O)c4[nH]cc(c47)CC6)c(c32)C1=O` (stereo not shown) [Compound 8] as the molecule, how does the IC50 (Leishmania donovani; Leishmania donovani) read?
**A.** 18700 nM

**Q.** What about the “activity towards Trypanosoma brucei rhodesiense (in words)” value [1] of the same molecule?
**A.** sub-micromolar

**Q.** And the IC50 [1, 9]?
**A.** 710 nM

**Q.** And the “SI Pf, antiplasmodial selectivity index = L6 IC50/P f. IC50” value [2]?
**A.** 0.3

**Q.** And the IC50 [2, 10]?
**A.** 6400 nM

**Q.** What about the IC50 (Trypanosoma cruzi; Trypanosoma cruzi) of the same molecule?
**A.** 11100 nM

**Q.** And the IC50 (L6 cytotoxicity assay)?
**A.** 2100 nM

**Q.** Which results are given for `O=C1C2=C(C3=NCCc4c[nH]c1c43)C1(C=C(Br)C(O)C(Br)=C1)CCN2` (stereo not shown) [Compound 9, 3-dihydrodiscorhabdin C]?
**A.** IC50 (Vero cell line): 9800 nM; IC50 ([2]; mean of duplicate assays, read-out: P. Falc. K1 IC50): 400 nM; IC50 [5]: 110 nM; IC50 [6]: 170 nM; IC50 (Pf W2 clone): 130 nM

**Q.** Which results are given for `O=C1C2=C3C4=[N+](CCc5c[nH]c1c54)[C@@H]1C(=O)C=C4S[C@@H](C[C@@]43C1O)N2` (stereo partly shown) [Compound 14]?
**A.** inhibition at 1.9 µM (Leishmania donovani; [11]): 20%; IC50 [1, 14]: 1300 nM; inhibition at 1.9 µM [2, 12]: 20%; inhibition at 12 µM (Trypanosoma cruzi; [13]): 9%; IC50 (L6 cytotoxicity assay): 11000 nM

**Q.** Which results are given for `CSC1=CC(=O)C(Br)=C[C@]12C=CNC1=C2C2=NCCc3cn(C)c(c32)C1=O` [Compound 16]?
**A.** SI Pf, antiplasmodial selectivity index = L6 IC50/P f. IC50 [2]: 3.6; IC50 [2, 10]: 1700 nM; IC50 (L6 cytotoxicity assay): 6100 nM

**Q.** What does the source list for `O=C1C2=C(C3=NCCc4c[nH]c1c43)c1c(cc(Br)c(O)c1Br)CCN2` [Compound 17]?
**A.** inhibition at 0.8 µM (Leishmania donovani; Leishmania donovani, at 0.8 μM, read-out: L. Don. % inhibition): 29%; activity towards Trypanosoma brucei rhodesiense (in words) [1]: sub-micromolar; IC50 [1, 9]: 330 nM; IC50 [7]: 560 nM; IC50 [8]: 160 nM; SI Pf, antiplasmodial selectivity index = L6 IC50/P f. IC50 [2]: 510; IC50 [2, 10]: 80 nM; inhibition at 0.8 µM (Trypanosoma cruzi; Trypanosoma cruzi, at 0.8 μM, read-out: T. Cruzi % inhibition): 0%; IC50 (L6 cytotoxicity assay): 41000 nM

**Q.** Which IC50 (Trypanosoma cruzi; Trypanosoma cruzi) does the source give for `O=C(Cn1ccnc1[N+](=O)[O-])NCc1ccccc1` [benznidazole, reference compound] here?
**A.** 1350 nM

**Q.** With `CCN(CC)CCCC(C)Nc1ccnc2cc(Cl)ccc12` (stereo not shown) [chloroquine, reference compound] as the molecule, how does the IC50 [2, 10] read?
**A.** 200 nM

**Q.** Which IC50 [1, 14] does the source give for `Nc1nc(N)nc(Nc2ccc([As]3SCC(CO)S3)cc2)n1` (stereo not shown) [melarsoprol, reference compound] here?
**A.** 10 nM

**Q.** Which IC50 (Leishmania donovani; Leishmania donovani) does the source give for `CCCCCCCCCCCCCCCCOP(=O)([O-])OCC[N+](C)(C)C` [miltefosine, reference compound] here?
**A.** 520 nM

**Q.** With `COc1cc([C@@H]2c3cc4c(cc3[C@H](O)[C@H]3COC(=O)[C@H]23)OCO4)cc(OC)c1OC` [podophyllotoxin, reference compound] as the molecule, how does the IC50 (L6 cytotoxicity assay) read?
**A.** 10 nM

**Q.** For discorhabdin U [Compound 15], which “L. Don. % inhibition” value (Leishmania donovani; at 1.5 μM) is on record?
**A.** 97% (1.5)

**Q.** What about the “T. B. Rhod. % inhibition” value ([1]; at 1.5 μM) of the same molecule?
**A.** 100% (1.5)

**Q.** What about the “P. Falc. K1 % inhibition” value ([2]; at 1.5 μM) of the same molecule?
**A.** 100% (1.5)

**Q.** And the “T. Cruzi % inhibition” value (Trypanosoma cruzi; at 1.5 μM)?
**A.** 100% (1.5)
